The results in this text go back to patent publication US8680268B2, “Sulfonic acid derivative compound and novel naphthalic acid derivative compound” (Adeka Corporation, priority 2010, dated 2014).

Data set [1] in a line: Evaluation of solubility in various organic solvents at 25° C. The following applies: concentration giving a stable solution. Type of data set: physicochemical.
Description: The case in which dissolution occurred at more than 20 mass % is indicated by 20<while the case of less than 0.5 mass % is indicated by 0.5>.
Data set [2] can be described thus: Measurement of UV absorption spectra of methanol solutions. It counts as physicochemical. The following applies: 1×10^−5 mol/liter; for Maximum absorption (nm), first absorption peak / Maximum absorption (nm), second absorption peak: 200 nm to 500 nm; for Maximum absorption (nm), first absorption peak / Absorbance at first absorption peak: (short wavelength); for Maximum absorption (nm), second absorption peak / Absorbance at second absorption peak: long wavelength. Here is the method:
Solutions of the compounds listed in Table 2 among the compounds yielded in the above described examples and the comparative compounds 1-3 represented by the formulae described below in methanol with 1×10^−5 mol/liter were prepared to measure the UV absorption spectra of the solutions at 200 nm to 500 nm.

With `CCCCCCCCSc1ccc2c3c(cccc13)C(=O)N(OS(=O)(=O)CC13CCC(CC1=O)C3(C)C)C2=O` (stereo not shown) [Compound S-29], in data set [1], the Solubility in cyclohexanone was greater than 20 mass %, the “Solubility in propylene glycol monomethyl ether acetate” value came out at 9.0 mass % and the “Solubility in γ-butyrolactone” value was 20< mass %. Moreover, in data set [2], the “Maximum absorption (nm), first absorption peak” value was determined as 210 nm; the “Maximum absorption (nm), second absorption peak” value came out at 400 nm; the “Absorbance at first absorption peak” value is given as 0.299; the “Absorbance at second absorption peak” value came to 0.158.
As to `O=C1c2cccc3cccc(c23)C(=O)N1OS(=O)(=O)C(F)(F)F` [Comparative compound 2], in data set [1], the Solubility in cyclohexanone is reported as 7.1 mass %, the “Solubility in propylene glycol monomethyl ether acetate” value was 1.9 mass % and the “Solubility in γ-butyrolactone” value was determined as 4.8 mass %. Also, in data set [2], the “Maximum absorption (nm), first absorption peak” value was 226 nm; the “Maximum absorption (nm), second absorption peak” value was determined as 336 nm; the “Absorbance at first absorption peak” value came to 0.389; the “Absorbance at second absorption peak” value stood at 0.103.
As to `CC1(C)C2CCC1(CS(=O)(=O)ON1C(=O)c3cccc4cccc(c34)C1=O)C(=O)C2` (stereo not shown) [compound 1], in data set [1], the Solubility in cyclohexanone came out at 6.1 mass %, the “Solubility in propylene glycol monomethyl ether acetate” value is on record as 1.1 mass % and the “Solubility in γ-butyrolactone” value is 12.6 mass %. In data set [2], the “Maximum absorption (nm), first absorption peak” value was 231 nm; the “Maximum absorption (nm), second absorption peak” value is on record as 335 nm; the “Absorbance at first absorption peak” value is reported as 0.413; the “Absorbance at second absorption peak” value was found to be 0.133.
With `Cc1ccc(S(=O)(=O)ON2C(=O)c3cccc4cccc(c34)C2=O)cc1` [compound 3], in data set [1], the Solubility in cyclohexanone came to 1.0 mass %, the Solubility in propylene glycol monomethyl ether acetate was less than 0.5 mass % and the “Solubility in γ-butyrolactone” value was found to be 1.9 mass %. Moreover, in data set [2], the “Maximum absorption (nm), first absorption peak” value stood at 229 nm; the “Maximum absorption (nm), second absorption peak” value was found to be 335 nm; the “Absorbance at first absorption peak” value came to 0.513; the “Absorbance at second absorption peak” value worked out at 0.117.
For `CCCCSc1ccc2c3c(cccc13)C(=O)N(OS(=O)(=O)CC13CCC(CC1=O)C3(C)C)C2=O` (stereo not shown) [Compound S-28], in data set [1], the Solubility in cyclohexanone is reported as 14.0 mass %, the “Solubility in propylene glycol monomethyl ether acetate” value came to 2.8 mass % and the “Solubility in γ-butyrolactone” value is recorded as 17.8 mass %.
